The text below walks through data of the NIST ThermoML archive (doi:10.1016/j.jct.2012.03.025).

A short description of series [1]: mn = molality of the nth substance listed, in mol/kg. Conditions: 308.15 K; 101 kPa; Liquid; Vibrating tube method; m2 = 0.
For series [2] the following is noted: 308.15 K; 101 kPa; Liquid; Vibrating tube method.

Each structure is given as a SMILES string. Numbers after ± are expanded uncertainties.

The mass density is the mass of a sample divided by its volume. As for `O` [water] + CCCCn1cc[n+](C)c1.O=S(=O)([O-])C(F)(F)F, the mass density in series [1] came to 994.058 ± 0.079 kg/m3.

For `O` [water], the mass density in series [2] amounted to 994.058 ± 0.044 kg/m3.

For `O` [water] + CCCCn1cc[n+](C)c1.F[B-](F)(F)F, the mass density in series [1] turned out to be 994.058 ± 0.055 kg/m3. `O` [water] + CCCCn1cc[n+](C)c1.[Cl-]: in series [1], the mass density was 994.058 ± 0.044 kg/m3. For `O` [water] + CC(=O)[O-].CCCCn1cc[n+](C)c1, in series [1], the mass density was determined as 994.058 ± 0.11 kg/m3.

`O` [water] + CCCCn1cc[n+](C)c1.[Br-]: the mass density in series [1] came out at 994.058 ± 0.064 kg/m3. Still for that read-out and setting: under `O` [water] + CCCCn1cc[n+](C)c1.[I-] stands 994.058 ± 0.092 kg/m3.
